# Structures can show the parent of a compound that is named as a salt. Where two headings read alike, the source gives them in different places.
# How the values were obtained:
# Proteus rettgeri = assay: MIC in vitro, Proteus rettgeri; format: cell-based; conditions: Providencia rettgeri
# Experimental: (§1) The following products were tested:
# (§2) The following results relate to the minimum inhibitory concentration (MIC) in vitro (μg/ml): […]
# Streptococcus pyogenes [1] = assay: MIC in vitro, Streptococcus pyogenes; format: cell-based
# Experimental: as §1, §2
# Serratia marcescens [2] = assay: s.c. treatment of mice before i.p. infection, Serratia marcescens; format: in vivo; conditions: sc, 5 hours before i.p. infection
# Experimental: (§3) The long retention of the products in accordance with the invention in the organism is also evident after the s.c. treatment of mice with product A or C 5 hours before a i.p. infection with the microorganism to be tested, the following Ed50 values being ascertained: […]
# [3] = half-life in vivo after i.v. administration; conditions: rat, plasma, iv; 20 mg i.v., rats
# Excerpt: The compounds of formula I as well as the corresponding readily hydrolyzable esters, readily hydrolyzable ethers and salts and the hydrates of same have antibiotic, especially bactericidal, activity.
# Streptococcus pyogenes [4] = assay: s.c. treatment of mice before i.p. infection, Streptococcus pyogenes; format: in vivo; conditions: sc, 5 hours before i.p. infection
# Experimental: as §3
# Staphylococcus aureus = assay: MIC in vitro, Staphylococcus aureus; format: cell-based
# Experimental: as §1, §2
# Neisseria gonorrhoeae = assay: MIC in vitro, Neisseria gonorrhoeae; format: cell-based
# Experimental: as §1, §2
# Streptococcus pneumoniae = assay: MIC in vitro, Streptococcus pneumoniae; format: cell-based
# Experimental: as §1, §2
# Haemophilus influenzae = assay: MIC in vitro, Haemophilus influenzae; format: cell-based
# Experimental: as §1, §2
# [5] = test system: Staphylococcus epidermidis; assay: MIC in vitro, Staphylococcus epidermidis; format: cell-based
# Experimental: as §1, §2
# Citrobacter freundii = assay: MIC in vitro, Citrobacter freundii; format: cell-based
# Experimental: as §1, §2
# Proteus vulgaris = assay: MIC in vitro, Proteus vulgaris; format: cell-based
# Experimental: as §1, §2
# Escherichia coli = assay: MIC in vitro, Escherichia coli; format: cell-based
# Experimental: as §1, §2
# Proteus morganii = assay: MIC in vitro, Proteus morganii; format: cell-based; conditions: Morganella morganii
# Experimental: as §1, §2
# Proteus mirabilis = assay: MIC in vitro, Proteus mirabilis; format: cell-based
# Experimental: as §1, §2
# Neisseria meningitidis = assay: MIC in vitro, Neisseria meningitidis; format: cell-based
# Experimental: as §1, §2
# Klebsiella pneumoniae = assay: MIC in vitro, Klebsiella pneumoniae; format: cell-based
# Experimental: as §1, §2
# Enterobacter aerogenes = assay: MIC in vitro, Enterobacter aerogenes; format: cell-based; conditions: Klebsiella aerogenes
# Experimental: as §1, §2
# Pseudomonas aeruginosa = assay: MIC in vitro, Pseudomonas aeruginosa; format: cell-based
# Experimental: as §1, §2
# Streptococcus viridans = assay: MIC in vitro, Streptococcus viridans; format: cell-based
# Experimental: as §1, §2
# Streptococcus faecalis = assay: MIC in vitro, Streptococcus faecalis; format: cell-based; conditions: Enterococcus faecalis
# Experimental: as §1, §2
# [6] = toxicity, 24 hours values; format: in vivo; conditions: 24 hours value; for MTD at 24 h: in vivo, read-out: Tolerated dosage
# Experimental: The compounds in accordance with the invention are non-toxic, as will be evident from the following data for the 24 hours values of products A and B: […]
# Serratia marcescens [7] = assay: MIC in vitro, Serratia marcescens; format: cell-based
# Experimental: as §1, §2
# Enterobacter cloacae = assay: MIC in vitro, Enterobacter cloacae; format: cell-based
# Experimental: as §1, §2
# Proteus inconstans = assay: MIC in vitro, Proteus inconstans; format: cell-based; conditions: Providencia alcalifaciens
# Experimental: as §1, §2
smiles,measurement,setting,value
"Cn1nc(O)c(=O)nc1SCC1=C(C(=O)O)N2C(=O)[C@@H](NC(=O)/C(=N\O)c3csc(N)n3)[C@H]2SC1 [Product A, (6R,7R)-7-[2-(2-Amino-4-thiazolyl)-2-(Z-hydroxyimino)acetamido]-3-/[(2,5-dihydro-6-hydroxy-2-methyl-5-oxo-as-triazin-3-yl)thio]methyl/-8-oxo-5-thia-1-azabicyclo[4.2.0]oct-2-ene-2-carboxylic acid disodium salt]",MIC,Proteus rettgeri; strain 1,0.63 µg/mL
same,MIC,Proteus rettgeri; strain 2,0.05 µg/mL
same,MIC,Streptococcus pyogenes [1]; strain 1,0.1 µg/mL
same,MIC,Streptococcus pyogenes [1]; strain 2,0.05 µg/mL
same,ED50,Serratia marcescens [2],0.89 mg/kg
same,half-life,[3],2.33 h
same,ED50,Streptococcus pyogenes [4],0.15 mg/kg
same,MIC,Staphylococcus aureus; strain 1,0.62 µg/mL
same,MIC,Staphylococcus aureus; strain 2: β-lactamase producing,1.2 µg/mL
same,MIC,Staphylococcus aureus; strain 3,1.6 µg/mL
same,MIC,Staphylococcus aureus; strain 4,1.6 µg/mL
same,MIC,Staphylococcus aureus; strain 5,1.6 µg/mL
same,MIC,Staphylococcus aureus; strain 6,3.1 µg/mL
same,MIC,Neisseria gonorrhoeae; strain 1,0.0012 µg/mL
same,MIC,Neisseria gonorrhoeae; strain 2,0.0012 µg/mL
same,MIC,Neisseria gonorrhoeae; strain 3,0.02 µg/mL
same,MIC,Neisseria gonorrhoeae; strain 4,0.01 µg/mL
same,MIC,Neisseria gonorrhoeae; strain 5,0.04 µg/mL
same,MIC,Neisseria gonorrhoeae; strain 6,0.0006 µg/mL
same,MIC,Streptococcus pneumoniae,0.4 µg/mL
same,MIC,Haemophilus influenzae; strain 1,0.63 µg/mL
same,MIC,Haemophilus influenzae; strain 2,0.04 µg/mL
same,MIC,Haemophilus influenzae; strain 3,0.04 µg/mL
same,MIC,Haemophilus influenzae; strain 4,0.04 µg/mL
same,MIC,Haemophilus influenzae; strain 5,0.04 µg/mL
same,MIC,Haemophilus influenzae; strain 6,0.02 µg/mL
same,MIC,Haemophilus influenzae; strain 7,0.04 µg/mL
same,MIC,[5],1.6 µg/mL
same,MIC,Citrobacter freundii; strain 1,80 µg/mL
same,MIC,Citrobacter freundii; strain 2,6.3 µg/mL
same,MIC,Citrobacter freundii; strain 3,0.2 µg/mL
same,MIC,Proteus vulgaris; strain 1,0.31 µg/mL
same,MIC,Proteus vulgaris; strain 2,0.31 µg/mL
same,MIC,Proteus vulgaris; strain 3,0.63 µg/mL
same,MIC,Proteus vulgaris; strain 4,3.1 µg/mL
same,MIC,Proteus vulgaris; strain 5,0.1 µg/mL
same,MIC,Proteus vulgaris; strain 6,0.05 µg/mL
same,MIC,Escherichia coli; strain 1,1.2 µg/mL
same,MIC,Escherichia coli; strain 2,1.2 µg/mL
same,MIC,Escherichia coli; strain 3,2.5 µg/mL
same,MIC,Escherichia coli; strain 4,0.31 µg/mL
same,MIC,Escherichia coli; strain 5,0.4 µg/mL
same,MIC,Escherichia coli; strain 6,0.2 µg/mL
same,MIC,Escherichia coli; strain 7,0.025 µg/mL
same,MIC,Escherichia coli; strain 8,0.05 µg/mL
same,MIC,Proteus morganii; strain 1,≤ 0.04 µg/mL
same,MIC,Proteus morganii; strain 2,0.05 µg/mL
same,MIC,Proteus mirabilis; strain 1,0.02 µg/mL
same,MIC,Proteus mirabilis; strain 2,0.025 µg/mL
same,MIC,Proteus mirabilis; strain 3,0.05 µg/mL
same,MIC,Proteus mirabilis; strain 4,0.025 µg/mL
same,MIC,Neisseria meningitidis; strain 1,0.0025 µg/mL
same,MIC,Neisseria meningitidis; strain 2,0.0025 µg/mL
same,MIC,Neisseria meningitidis; strain 3,0.0025 µg/mL
same,MIC,Neisseria meningitidis; strain 4,0.0012 µg/mL
same,MIC,Klebsiella pneumoniae; strain 1,0.02 µg/mL
same,MIC,Klebsiella pneumoniae; strain 2,0.1 µg/mL
same,MIC,Klebsiella pneumoniae; strain 3,0.025 µg/mL
same,MIC,Klebsiella pneumoniae; strain 4,0.05 µg/mL
same,MIC,Enterobacter aerogenes; strain 1,0.1 µg/mL
same,MIC,Enterobacter aerogenes; strain 2,0.8 µg/mL
same,MIC,Pseudomonas aeruginosa; strain 1,> 80 µg/mL
same,MIC,Pseudomonas aeruginosa; strain 2,> 80 µg/mL
same,MIC,Pseudomonas aeruginosa; strain 3,40 µg/mL
same,MIC,Pseudomonas aeruginosa; strain 4,80 µg/mL
same,MIC,Pseudomonas aeruginosa; strain 5,> 80 µg/mL
same,MIC,Pseudomonas aeruginosa; strain 6,10 µg/mL
same,MIC,Pseudomonas aeruginosa; strain 7,5 µg/mL
same,MIC,Pseudomonas aeruginosa; strain 8,20 µg/mL
same,MIC,Pseudomonas aeruginosa; strain 9,> 80 µg/mL
same,MIC,Pseudomonas aeruginosa; strain 10,10 µg/mL
same,MIC,Pseudomonas aeruginosa; strain 11,5 µg/mL
same,MIC,Pseudomonas aeruginosa; strain 12,> 80 µg/mL
same,MIC,Pseudomonas aeruginosa; strain 13,80 µg/mL
same,MIC,Pseudomonas aeruginosa; strain 14,> 80 µg/mL
same,MIC,Pseudomonas aeruginosa; strain 15,80 µg/mL
same,MIC,Pseudomonas aeruginosa; strain 16,> 80 µg/mL
same,MIC,Pseudomonas aeruginosa; strain 17,> 80 µg/mL
same,MIC,Streptococcus viridans,1.6 µg/mL
same,MIC,Streptococcus faecalis; strain 1,25 µg/mL
same,MIC,Streptococcus faecalis; strain 2,> 25 µg/mL
same,MTD at 24 h,[6]; intravenous,500 mg/kg
same,MTD at 24 h,[6]; oral,5000 mg/kg
same,Lethal dosage,[6]; intravenous,1000 mg/kg
same,Lethal dosage,[6]; oral,> 5000 mg/kg
same,Lethal dosage,[6]; subcutaneous,> 4000 mg/kg
same,MIC,Serratia marcescens [7]; strain 1,0.16 µg/mL
same,MIC,Serratia marcescens [7]; strain 2,0.31 µg/mL
same,MIC,Serratia marcescens [7]; strain 3,0.31 µg/mL
same,MIC,Serratia marcescens [7]; strain 4,0.63 µg/mL
same,MIC,Serratia marcescens [7]; strain 5,0.31 µg/mL
same,MIC,Serratia marcescens [7]; strain 6,0.31 µg/mL
same,MIC,Serratia marcescens [7]; strain 7,0.31 µg/mL
same,MIC,Serratia marcescens [7]; strain 8,0.31 µg/mL
same,MIC,Serratia marcescens [7]; strain 9,0.16 µg/mL
same,MIC,Serratia marcescens [7]; strain 10,0.8 µg/mL
same,MIC,Serratia marcescens [7]; strain 11,6.3 µg/mL
same,MIC,Serratia marcescens [7]; strain 12,0.1 µg/mL
same,MIC,Enterobacter cloacae; strain 1,20 µg/mL
same,MIC,Enterobacter cloacae; strain 2,> 80 µg/mL
same,MIC,Enterobacter cloacae; strain 3,> 25 µg/mL
same,MIC,Enterobacter cloacae; strain 4,12.5 µg/mL
same,MIC,Proteus inconstans; strain 1,0.08 µg/mL
same,MIC,Proteus inconstans; strain 2,0.01 µg/mL
same,MIC,Proteus inconstans; strain 3,≤ 0.025 µg/mL

# — US4774330A, “Cephalosporin intermediates” (Hoffmann-La Roche Inc., priority 1980, dated 1988)
